Results: PubChem BioAssay (NCI)
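Assay format: 96-well plates, 48-hour exposure. Definition used: TGI = concentration required for complete inhibition of growth.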 Where a SMILES comes first, the peptide text is derived from it. The star is where a group is joined. Boc = CC(C)(C)OC(=O)*; OtBu = CC(C)(C)O*

Experiments:
Assay in all cases: inhibition of tumour cell growth, NCI panel, 48 h
786-0 renal = system: 786-0 renal
MCF7 breast = system: MCF7 breast
MDA-MB-435 = system: MDA-MB-435
SF-268 CNS = system: SF-268 CNS
SF-295 CNS = system: SF-295 CNS
SK-MEL-2 melanoma = system: SK-MEL-2 melanoma
SK-MEL-5 melanoma = system: SK-MEL-5 melanoma
SNB-75 CNS = system: SNB-75 CNS
SR leukemia = system: SR leukemia
UACC-62 melanoma = system: UACC-62 melanoma
NCI-H522 lung = system: NCI-H522 lung

SMILES	TGI (786-0 renal) [µM]	TGI (MCF7 breast) [µM]	TGI (MDA-MB-435) [µM]	TGI (SF-268 CNS) [µM]	TGI (SF-295 CNS) [µM]	TGI (SK-MEL-2 melanoma) [µM]	TGI (SK-MEL-5 melanoma) [µM]	TGI (SNB-75 CNS) [µM]	TGI (SR leukemia) [µM]	TGI (UACC-62 melanoma) [µM]	TGI (NCI-H522 lung) [µM]
NCCCc1nonc1C(=O)O	> 100	> 100	> 100	> 100	> 100	> 100	> 100	> 100	> 100	> 100	
COC(=O)c1nc2n(n1)-c1ccccc1C(=O)N(Cc1ccccc1)C2	> 100	> 100	> 100	> 100	> 100	> 100	> 100		> 100	> 100	> 100
CCCCCCCCCCCCOC(=N)N1CCOCC1	28.4			30.4	31.7	23.9	23.4	29.9	4.53	24.7	30.4
CCn1c(O)c(C(=O)Nc2cccs2)c(=O)n(CC)c1=S	42.2			44.4	35.6	32.8	38.5	33.4	> 100	29.5	38.4
COc1ccc(CC(COS(=O)(=O)c2ccc(C)cc2)NS(=O)(=O)c2ccc(C)cc2)cc1 (stereo not drawn)	53.1	> 69.7	28.5	39	33.6	44.7	24.6	28.4		43.8	22.9
CC(C)(C)OC(=O)CC(NC(=O)OC(C)(C)C)C(=O)NC(Cc1ccccc1)C(N)=O (stereo not drawn) (Boc-Asp(OtBu)-Phe-NH2; configuration not given here)	> 100	> 100	> 100	> 100	> 100	> 100	> 100	> 100			> 100
COc1ccc(C2OC2C(=O)C23CC4CC(CC(C4)C2)C3)cc1 (stereo not drawn)	> 100	> 100	> 100	> 100	> 100		> 100			49	> 100
O=[N+]([O-])c1cccc(-c2ccc([C@H]3CC(c4ccc(Cl)cc4)=NN3)o2)c1	28.5	> 100	54.4	> 100	88.5		32.2	48.4	32.7	49.1	59.1
CCOC(=O)c1c2ccccc2n2c(=O)n(-c3ccccc3)nnc12	> 100	> 100	> 100	> 100	> 49.1	> 100	41.7	89.5	> 25.1	> 100	
CCOc1cc(NC(C)=O)ccc1C(=O)NN1C(=O)/C(=C/c2ccc(Cl)cc2)N=C1c1ccccc1	> 100	> 100	> 100		> 100	> 100	81.3	> 100	> 100		
COCc1nc(C#N)c(N)o1	> 10	> 10	> 10	> 10	> 10		> 10	> 10	> 10	> 10	> 10
